What was measured:
[1] = target: AD brain-enriched PHF (Homo sapiens, UniProt P10636); assay: Assay 2 (filter trap): [3H]RefA radio-binding competition assay and Ki on PHF; settings: [^3H]RefA 10 nM; for Ki: PHF diluted 1/80, compound 0.12 nM to 50 μM; for inhibition at 2.5 µM: compound 2.5 μM, no Ki determined
Experimental: Displacement of [^3H]RefA by Compounds of this Invention
50 g of frontal lobe tissue from post-mortem brain of an Alzheimer's disease (AD) patient were obtained from the London Tissue Bank. The patient was a […] and died […]. The brain sample was collected 5 hours post-mortem and characterized for Braak disease stage (Braak, H.; Braak, E. Acta Neuropathol., 1991, 82, 239-259) as stage VI. For the enrichment of PHF's, around 15 g of the AD human brain was thawed on ice and homogenized with 50 ml of homogenization buffer [0.75 M NaCl in RAB buffer (100 mM 2-(N-morpholino) ethanesulfonic acid (MES), 1 mM EGTA, 0.5 mM MgSO4, 2 mM DTT, pH 6.8) supplemented with protease inhibitors (Complete; Roche 11697498001) in a glass Dounce homogenizer. The homogenate was then incubated at 4° C. for 20 min to let any residual microtubules depolymerize, before the homogenate was transferred into polycarbonate centrifuge bottles (16×76 mm; Beckman 355603) and centrifuged at 11,000 g (12,700 RPM) in an ultracentrifuge (Beckman, XL100K) for 20 min at 4° C. using the pre-cooled 70.1 rotor (Beckman, 342184). Pellets were kept on ice. Supernatants were pooled into polycarbonate bottles and centrifuged again at 100,000 g (38,000 RPM) for 1 h at 4° C. in the 70.1 Ti rotor to isolate PHF-rich pellets, whereas soluble tau remained in the supernatants. The pellets from the first and second centrifugations were re-suspended in 120 mL of extraction buffer [10 mM Tris-HCl pH 7.4, 10% sucrose, 0.85 M NaCl, 1% protease inhibitor (Calbiochem 539131), 1 mM EGTA, 1% phosphatase inhibitor (Sigma P5726 and P0044)]. The solution was then transferred into polycarbonate centrifuge bottles (16×76 mm; Beckman 355603) and centrifuged at 15,000 g (14,800 RPM) in an ultracentrifuge (Beckman, XL100K) for 20 min at 4° C. using the 70.1 Ti rotor. In the presence of 10% sucrose and at low speed centrifugation, most PHF remained in the supernatant whereas intact or fragmented NFTs and larger PHF aggregates were pelleted. The pellets were discarded. 20% Sarkosyl (Sigma L7414-10ML) was added to the supernatants to a final concentration of 1% and stirred at room temperature for 1 h. This solution was then centrifuged into polycarbonate bottles at 100,000 g (38,000 RPM) for 1 h at 4° C. in the 70.1 Ti rotor, and the pellets containing PHF-rich material were re-suspended in a total final volume of 1.5 mL of PBS, aliquoted and stored at −80° C.
[^3H]RefA Radio-Binding Competition Assay
AD brain-enriched PHF diluted 1/80 were incubated in the presence of [^3H]RefA at 10 nM and the example compounds of this invention at 2.5 μM (250× excess), for 45 minutes at 37° C. Samples were then analyzed by on GF/B filter plates as described above (in the section “[^3H]RefA radio-binding assay and determination of the dissociation constant (Kd)). Non-specific signal was determined again with an excess of un-labeled RefA and specific binding calculated by subtracting the non-specific signal from the total signal. Competition was calculated as percent, where 0% was defined as the specific binding in the presence of vehicle (2.8% DMSO in PBS) and 100% as the values obtained in the presence of excess cold RefA. Similar assays were performed to determine the competition of the cold compounds on [^3H]RefA on in vitro aggregated recombinant human tau or Abeta1-42 For both recombinant proteins, 20 μg/mL of aggregates were incubated with 10 nM of [^3H]RefA for recombinant human tau or 80 nM of [^3H]RefA for recombinant human Abeta1-42.
Determination of the Binding Affinity (Ki)
Samples were then analyzed on GF/B filter plates as described above and Ki values calculated using Prism V5 (GraphPad).

[2] = tested on: Aβ plaques on AD brain section; assay: Assay 1: displacement of Compound B on human AD brain sections (fluorescence); type: binding
Experimental: Direct Binding of Compounds of this Invention to Human Alzheimer's Disease Brain Sections and/or Displacement of RefA and Compound B Frozen sections with a thickness of […] from the amygdala of donors diagnosed with Braak stage V-VI Alzheimer's Disease (Braak, H.; Braak, E. Acta Neuropathol., 1991, 82, 239-259), were purchased from a commercial provider (Tissue Solutions) and kept at -80° C. until use. Displacement of RefA and Compound B Brain sections were mainly treated as described above. Test compounds were, however, incubated on the section at 250 μM in 50% ethanol for 20 min at room temperature, and then directly incubated with the fluorescent reference compounds RefA and Compound B, each at 1 μM in 50% ethanol for 20 min at room temperature. RefA and Compound B stainings were visualized using the 470 nm and 365 nm excitation filters, respectively. Images were acquired, and tangles and plaques quantified using the NIS-Element software. Only those compounds not directly staining tangles or plaques at the same wavelengths as RefA and Compound B were tested in the displacement assay. Structure of Compound B (prepared by a similar procedure described for […] in WO2010/011964): […]

[3] = tested on: tau tangles on AD brain section; assay: Assay 1: displacement of RefA on human AD brain sections (fluorescence); type: binding; settings: for Selectivity (tau/Abeta): ratio of competition on tau tangles to competition on Aβ plaques
Experimental: (§1) Direct Binding of Compounds of this Invention to Human Alzheimer's Disease Brain Sections and/or Displacement of RefA and Compound B
(§2) Frozen sections with a thickness of […] from the amygdala of donors diagnosed with Braak stage V-VI Alzheimer's Disease (Braak, H.; Braak, E. Acta Neuropathol., 1991, 82, 239-259), were purchased from a commercial provider (Tissue Solutions) and kept at −80° C. until use.
Displacement of RefA and Compound B
Brain sections were mainly treated as described above. Test compounds were, however, incubated on the section at 250 μM in 50% ethanol for 20 min at room temperature, and then directly incubated with the fluorescent reference compounds RefA and Compound B, each at 1 μM in 50% ethanol for 20 min at room temperature. RefA and Compound B stainings were visualized using the 470 nm and 365 nm excitation filters, respectively. Images were acquired, and tangles and plaques quantified using the NIS-Element software. Only those compounds not directly staining tangles or plaques at the same wavelengths as RefA and Compound B were tested in the displacement assay.
Structure of RefA (Tago et al., J. Label. Compd. Radiopharm. 2013, DOI: 10.1002/jlcr.3133)

[4] = tested on: tau tangles/Aβ plaques on AD brain sections; assay: Assay 1: direct staining of human Alzheimer's disease brain sections (fluorescence); type: binding; parameters: key to Direct staining of tau tangles/Aβ plaques on AD brain sections at 100 μM / Direct staining of tau tangles on AD brain sections at 100 μM / Direct staining of Aβ plaques on AD brain sections at 100 μM / Direct staining of tau tangles on AD brain sections (footnote a: at 250 μM): − (No); +++ (strong); ++ (good); + (weak); settings: for Direct staining of tau tangles/Aβ plaques on AD brain sections at 100 μM: human AD brain sections, fluorescence, cell does not say tangles or plaques
Experimental: Assay 1 (Fluorescence Based Assay):
as §1, §2
Direct Staining of Human Alzheimer's Disease Brain Sections
Brain sections were encircled with pap pen liquid blocker to reduce the volume of solution for the different incubations. Sections were fixed for 15 min at 4° C. with 4% paraformaldehyde and washed three times 5 minutes with PBS at room temperature. […] To reduce the auto-fluorescence of the tissue, the sections were incubated in a solution of 0.1% Sudan Black (Sigma 199664) in 70% ethanol for 15 min at room temperature in the dark, washed four times for 5 minutes with PBS, and mounted using ProLong Gold Antifade reagent (Invitrogen P36930). Sections were then analyzed on the Nikon Eclipse Ti microscope to detect staining and imaged using Nikon DS-Fi2 camera and NIS-Element AR4.13.1 software.

Chain of AD brain-enriched PHF (P10636 623-708 limits assumed): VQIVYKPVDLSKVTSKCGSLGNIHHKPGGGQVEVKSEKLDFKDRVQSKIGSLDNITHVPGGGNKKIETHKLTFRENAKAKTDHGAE

| Compound | Competition on AD brain section Aβ plaques (1 μM Compound B vs 250 μM compound) [2] | Competition on AD brain section tau tangles (1 μM RefA vs. 250 μM compound) [3] | inhibition at 2.5 µM [1] | Direct staining of tau tangles/Aβ plaques on AD brain sections at 100 μM ([4]; 100 μM compound) | Direct staining of tau tangles on AD brain sections at 100 μM ([4]; 100 μM compound, tangles) | other results |
| --- | --- | --- | --- | --- | --- | --- |
| Cn1c2ccncc2c2ccc(Nc3ccc(F)c(N4CCOCC4)c3)nc21 [Example 3] | 8% | 78% |  | − |  | Ki [1]: 233 nM; Selectivity (tau/Abeta) [3]: ~9.8 fold |
| Cn1c2ccncc2c2ccc(Nc3cc(F)cc(N4CCOCC4)c3)nc21 [Example 7] | 0% | 84% |  |  | ++ (tangles) | Ki [1]: 326 nM; Selectivity (tau/Abeta) [3]: >84 fold |
| Cn1c2ccncc2c2ccc(Nc3ccc(OC(F)F)nc3)nc21 [Example 11] |  |  |  |  | ++ (tangles) | Ki [1]: 188 nM |
| Cn1c2ccncc2c2ccc(Nc3cccc(OCCF)n3)nc21 [Example 44] | −21% | 88% |  |  | ++ (tangles) | Selectivity (tau/Abeta) [3]: >88 fold |
| Cn1c2ccncc2c2ccc(Nc3cccc(OC(F)(F)F)c3)nc21 [Example 13] |  |  |  |  |  | Ki [1]: 169 nM |
| Cn1c2ccncc2c2ccc(Nc3ccc(C#N)c(F)c3)nc21 [Example 17] |  |  | < 50% |  | +++ (tangles) |  |
| Cn1c2c(c3ccc(Nc4ccc(F)c(F)c4)nc31)C(=O)N(CCCN)CC2 [212 Step F] |  |  | < 50% |  |  |  |
| Cn1c2ccncc2c2ccc(Nc3cc(N4CCOCC4)ccc3F)nc21 [Example 10] |  |  | < 50% | − |  |  |
| Cn1c2ccncc2c2ccc(Nc3cccc(OCCOCCF)c3)nc21 [Example 95] | 59% |  |  |  | ++ (tangles) |  |
| Cn1c2ccncc2c2ccc(Nc3cncc(OCCF)c3)nc21 [Example 59] | −9% | 93%. |  |  | +++ (tangles) | Selectivity (tau/Abeta) [3]: >93 fold |
| Cn1c2ccncc2c2ccc(Nc3ccc(F)c(C#N)c3)nc21 [Example 6] |  |  | < 50% |  | +++ (tangles) |  |
| Cn1c2ccncc2c2ccc(Nc3cncc(OCCOCCF)c3)nc21 [Example 65] | 35% |  |  |  | ++ (tangles) |  |
| Cn1c2ccncc2c2ccc(Nc3cc(F)ccc3N3CCOCC3)nc21 [Example 16] |  |  | < 50% | − |  |  |
| Cn1c2ccncc2c2ccc(Nc3cccc(F)c3N3CCOCC3)nc21 [Example 14] |  |  |  |  |  | Ki [1]: 371 nM |
| Cn1c2ccncc2c2ccc(Nc3c(F)cccc3N3CCOCC3)nc21 [Example 15] |  |  | < 50% |  |  |  |

Second part, led by results:

| Competition on AD brain section Aβ plaques (1 μM Compound B vs 250 μM compound) [2] | Competition on AD brain section tau tangles (1 μM RefA vs. 250 μM compound) [3] | inhibition at 2.5 µM [1] | Compound | Direct staining of tau tangles/Aβ plaques on AD brain sections at 100 μM ([4]; 100 μM compound) | Direct staining of tau tangles on AD brain sections at 100 μM ([4]; 100 μM compound, tangles) | other results |
| --- | --- | --- | --- | --- | --- | --- |
|  |  | < 50% | COc1cc(Nc2ccc3c4c(n(C)c3n2)CCN(C)C4=O)ccc1C [Example 171] | − |  |  |
|  | 20% | < 50% | CN1CCc2c(c3ccc(Nc4ccc5c(c4)OCO5)nc3n2C)C1=O [Example 170] | − |  |  |
| 3% | 18% |  | Cn1c2ccncc2c2ccc(N3CCOC[C@H]3CF)nc21 [Example 150] |  |  | Direct staining of tau tangles on AD brain sections (footnote a: at 250 μM) ([4]; 250 μM compound, tangles): + (tangles)^a |
| 18% |  |  | Cn1c2ccncc2c2ccc(Nc3cccc(OCCOCCOCCF)c3)nc21 [Example 96] |  | ++ (tangles) |  |
| 42% | 99% |  | Cn1c2ccncc2c2ccc(N3CCC(CCF)CC3)nc21 [Example 151] | − |  | Selectivity (tau/Abeta) [3]: ~2.4-fold |
|  |  | < 50% | Cn1c2c(c3ccc(Nc4ccc(F)c(F)c4)nc31)C(=O)NCC2 [Example 174] | − |  |  |
|  | 16% | < 50% | CN1CCc2c(c3ccc(Nc4ccc5ncn(C)c5c4)nc3n2C)C1=O [Example 172] | − |  |  |
| 15% | 90% |  | Cn1c2ccncc2c2ccc(N3CCC(CCOCCF)CC3)nc21 [Example 155] |  | + (tangles) + (plaques) | Selectivity (tau/Abeta) [3]: ~6-fold; Direct staining of Aβ plaques on AD brain sections at 100 μM ([4]; 100 μM compound, plaques): + (tangles) + (plaques) |

Reference: patent US10662193B2, “Carbazole and carboline compounds for use in the diagnosis, treatment, alleviation or prevention of disorders associated with amyloid or amyloid-like proteins” (AC IMMUNE SA, priority 2014, dated 2020)
